# In patent publication US9598410B2, “Substituted 4,5,6,7-tetrahydro-1H-pyrazolo[4,3-C]pyridines, their use as medicament, and pharmaceutical preparations comprising them” (SANOFI, priority 2011, dated 2017):
# Biological target: Human TASK-1 channels (Homo sapiens (Human), UniProt O14649)
# Assay: Activity on the TASK-1 channel in Xenopus oocytes (two-microelectrode voltage clamp)
# Assay type: cell-based
# Conditions: percentage inhibition of TASK-1 control current
# Method: Human TASK-1 channels were expressed in Xenopus oocytes. […] Subsequently, TASK-1-encoding RNA synthesized in vitro was injected into oocytes. […] Oocytes were continuously superfused with ND96 buffer containing: NaCl 96 mM, KCl 2 mM, CaCl2 1.8 mM, MgCl2 1 mM, HEPES 5 mM (pH adjusted to 7.4 with NaOH). All experiments were performed at room temperature.
# IC50 values were obtained by fitting the data to the general dose-response equation.
# Chain of Human TASK-1 channels (O14649 whole entry): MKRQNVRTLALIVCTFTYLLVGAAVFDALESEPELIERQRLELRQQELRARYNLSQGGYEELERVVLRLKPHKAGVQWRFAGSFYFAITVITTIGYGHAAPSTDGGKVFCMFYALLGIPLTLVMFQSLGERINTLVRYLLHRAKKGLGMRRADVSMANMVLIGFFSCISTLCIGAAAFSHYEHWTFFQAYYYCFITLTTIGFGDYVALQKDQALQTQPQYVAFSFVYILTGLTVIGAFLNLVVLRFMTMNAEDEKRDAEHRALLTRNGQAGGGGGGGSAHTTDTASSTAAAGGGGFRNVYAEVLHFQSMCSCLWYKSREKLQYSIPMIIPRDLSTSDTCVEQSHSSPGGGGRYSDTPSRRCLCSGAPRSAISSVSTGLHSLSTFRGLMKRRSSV
smiles,measurement,value
"COc1ccnc(Cn2nc(-c3cccc(C(F)(F)F)c3)c3c2CCN(C(C)=O)C3)c1 [Example 6q, 1-[1-(4-Methoxy-pyridin-2-ylmethyl)-3-(3-trifluoromethyl-phenyl)-1,4,6,7-tetrahydro-pyrazolo[4,3-c]pyridin-5-yl]-ethanone]",Inhibition (%) at 5 μM,70%
